# Data taken from ChEMBL document CHEMBL4219204, “Structure-based design and discovery of potent and selective KDM5 inhibitors” (Bioorg Med Chem Lett, 2018).
# Tests used:
# [1] = molecular target: T1, Lysine-specific demethylase 4C (Homo sapiens, UniProt Q9H3R0); assay: Inhibition of KDM4C (unknown origin) preincubated with enzyme
# T1 sequence (Q9H3R0 whole entry): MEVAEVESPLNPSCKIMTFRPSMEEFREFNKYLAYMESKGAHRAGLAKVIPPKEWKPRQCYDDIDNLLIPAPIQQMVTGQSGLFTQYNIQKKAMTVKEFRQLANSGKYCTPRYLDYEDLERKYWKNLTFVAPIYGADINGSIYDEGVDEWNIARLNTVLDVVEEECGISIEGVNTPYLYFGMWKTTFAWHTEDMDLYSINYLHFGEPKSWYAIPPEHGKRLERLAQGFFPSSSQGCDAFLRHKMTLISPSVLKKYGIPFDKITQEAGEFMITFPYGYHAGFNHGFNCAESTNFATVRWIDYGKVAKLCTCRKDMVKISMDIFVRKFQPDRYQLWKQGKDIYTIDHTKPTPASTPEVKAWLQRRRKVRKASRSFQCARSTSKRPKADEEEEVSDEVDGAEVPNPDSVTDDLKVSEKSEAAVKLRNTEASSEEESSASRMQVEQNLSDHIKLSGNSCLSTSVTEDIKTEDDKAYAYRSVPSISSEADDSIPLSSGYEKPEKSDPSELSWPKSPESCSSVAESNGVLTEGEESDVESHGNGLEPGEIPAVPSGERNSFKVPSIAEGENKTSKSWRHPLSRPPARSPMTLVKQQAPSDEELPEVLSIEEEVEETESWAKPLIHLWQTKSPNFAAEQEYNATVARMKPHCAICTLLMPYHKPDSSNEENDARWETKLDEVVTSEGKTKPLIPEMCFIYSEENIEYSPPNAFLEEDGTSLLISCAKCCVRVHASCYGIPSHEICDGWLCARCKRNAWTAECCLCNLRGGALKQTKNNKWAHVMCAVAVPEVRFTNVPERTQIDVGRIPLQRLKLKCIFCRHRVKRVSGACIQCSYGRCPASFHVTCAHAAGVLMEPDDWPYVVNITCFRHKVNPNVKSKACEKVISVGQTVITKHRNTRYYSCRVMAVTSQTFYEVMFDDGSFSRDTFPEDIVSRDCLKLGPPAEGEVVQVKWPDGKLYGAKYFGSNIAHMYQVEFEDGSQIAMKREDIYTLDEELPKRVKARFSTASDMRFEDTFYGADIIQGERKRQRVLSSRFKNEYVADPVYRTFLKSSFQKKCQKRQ
# [2] = molecular target: Lysine-specific demethylase 5B (Homo sapiens, UniProt Q9UGL1); assay: Inhibition of KDM5B (unknown origin) preincubated with enzyme
# Lysine-specific demethylase 5B, sequence (Q9UGL1 whole entry): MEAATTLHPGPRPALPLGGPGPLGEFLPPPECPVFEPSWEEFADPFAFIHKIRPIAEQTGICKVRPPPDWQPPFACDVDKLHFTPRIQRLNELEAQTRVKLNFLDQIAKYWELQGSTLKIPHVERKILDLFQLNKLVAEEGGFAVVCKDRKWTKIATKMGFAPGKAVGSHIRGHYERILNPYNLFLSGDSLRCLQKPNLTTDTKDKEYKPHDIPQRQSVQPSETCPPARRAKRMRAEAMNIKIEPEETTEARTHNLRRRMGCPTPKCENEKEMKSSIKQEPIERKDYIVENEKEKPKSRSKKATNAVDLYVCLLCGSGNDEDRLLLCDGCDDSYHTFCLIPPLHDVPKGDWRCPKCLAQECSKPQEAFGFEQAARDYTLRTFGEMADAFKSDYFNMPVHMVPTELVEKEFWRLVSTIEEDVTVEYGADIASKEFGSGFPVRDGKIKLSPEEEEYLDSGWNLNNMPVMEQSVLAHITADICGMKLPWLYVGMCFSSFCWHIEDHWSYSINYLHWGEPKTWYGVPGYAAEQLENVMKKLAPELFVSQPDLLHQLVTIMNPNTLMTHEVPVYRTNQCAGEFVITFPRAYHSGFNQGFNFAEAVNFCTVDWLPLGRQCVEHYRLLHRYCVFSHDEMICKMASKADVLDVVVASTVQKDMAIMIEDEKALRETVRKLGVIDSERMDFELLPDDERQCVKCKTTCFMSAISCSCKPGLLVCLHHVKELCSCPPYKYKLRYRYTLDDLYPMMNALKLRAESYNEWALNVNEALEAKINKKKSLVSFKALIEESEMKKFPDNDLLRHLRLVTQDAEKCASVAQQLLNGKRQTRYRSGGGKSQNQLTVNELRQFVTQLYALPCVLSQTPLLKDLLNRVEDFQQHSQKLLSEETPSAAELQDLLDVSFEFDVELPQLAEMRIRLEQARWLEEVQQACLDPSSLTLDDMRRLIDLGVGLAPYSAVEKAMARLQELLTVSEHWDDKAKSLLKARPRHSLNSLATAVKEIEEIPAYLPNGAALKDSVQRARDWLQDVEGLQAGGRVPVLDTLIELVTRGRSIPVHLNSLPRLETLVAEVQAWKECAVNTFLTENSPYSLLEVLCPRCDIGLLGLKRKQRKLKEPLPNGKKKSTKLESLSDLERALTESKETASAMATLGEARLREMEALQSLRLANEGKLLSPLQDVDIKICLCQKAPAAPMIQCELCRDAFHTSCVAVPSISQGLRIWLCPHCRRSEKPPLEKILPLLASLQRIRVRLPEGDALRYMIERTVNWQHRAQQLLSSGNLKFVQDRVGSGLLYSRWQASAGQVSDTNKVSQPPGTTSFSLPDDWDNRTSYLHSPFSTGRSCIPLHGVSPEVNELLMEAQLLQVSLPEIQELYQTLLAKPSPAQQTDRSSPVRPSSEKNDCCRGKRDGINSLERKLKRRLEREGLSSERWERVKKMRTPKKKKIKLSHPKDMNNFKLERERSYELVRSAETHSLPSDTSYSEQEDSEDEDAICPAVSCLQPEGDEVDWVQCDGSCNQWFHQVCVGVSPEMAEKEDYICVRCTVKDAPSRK
# [3] = molecular target: Lysine-specific demethylase 5A/5B (Homo sapiens, UniProt P29375+Q9UGL1); assay: Inhibition of KDM5A/KDM5B in human ZR-75-1 cells assessed as increase in H3K4me3 level after 72 hrs by fluorometric immunoassay; type: cell-based
# [4] = molecular target: Lysine-specific demethylase 5A (Homo sapiens, UniProt P29375); assay: Inhibition of KDM5A (unknown origin) preincubated with enzyme
# Lysine-specific demethylase 5A, sequence (P29375 whole entry): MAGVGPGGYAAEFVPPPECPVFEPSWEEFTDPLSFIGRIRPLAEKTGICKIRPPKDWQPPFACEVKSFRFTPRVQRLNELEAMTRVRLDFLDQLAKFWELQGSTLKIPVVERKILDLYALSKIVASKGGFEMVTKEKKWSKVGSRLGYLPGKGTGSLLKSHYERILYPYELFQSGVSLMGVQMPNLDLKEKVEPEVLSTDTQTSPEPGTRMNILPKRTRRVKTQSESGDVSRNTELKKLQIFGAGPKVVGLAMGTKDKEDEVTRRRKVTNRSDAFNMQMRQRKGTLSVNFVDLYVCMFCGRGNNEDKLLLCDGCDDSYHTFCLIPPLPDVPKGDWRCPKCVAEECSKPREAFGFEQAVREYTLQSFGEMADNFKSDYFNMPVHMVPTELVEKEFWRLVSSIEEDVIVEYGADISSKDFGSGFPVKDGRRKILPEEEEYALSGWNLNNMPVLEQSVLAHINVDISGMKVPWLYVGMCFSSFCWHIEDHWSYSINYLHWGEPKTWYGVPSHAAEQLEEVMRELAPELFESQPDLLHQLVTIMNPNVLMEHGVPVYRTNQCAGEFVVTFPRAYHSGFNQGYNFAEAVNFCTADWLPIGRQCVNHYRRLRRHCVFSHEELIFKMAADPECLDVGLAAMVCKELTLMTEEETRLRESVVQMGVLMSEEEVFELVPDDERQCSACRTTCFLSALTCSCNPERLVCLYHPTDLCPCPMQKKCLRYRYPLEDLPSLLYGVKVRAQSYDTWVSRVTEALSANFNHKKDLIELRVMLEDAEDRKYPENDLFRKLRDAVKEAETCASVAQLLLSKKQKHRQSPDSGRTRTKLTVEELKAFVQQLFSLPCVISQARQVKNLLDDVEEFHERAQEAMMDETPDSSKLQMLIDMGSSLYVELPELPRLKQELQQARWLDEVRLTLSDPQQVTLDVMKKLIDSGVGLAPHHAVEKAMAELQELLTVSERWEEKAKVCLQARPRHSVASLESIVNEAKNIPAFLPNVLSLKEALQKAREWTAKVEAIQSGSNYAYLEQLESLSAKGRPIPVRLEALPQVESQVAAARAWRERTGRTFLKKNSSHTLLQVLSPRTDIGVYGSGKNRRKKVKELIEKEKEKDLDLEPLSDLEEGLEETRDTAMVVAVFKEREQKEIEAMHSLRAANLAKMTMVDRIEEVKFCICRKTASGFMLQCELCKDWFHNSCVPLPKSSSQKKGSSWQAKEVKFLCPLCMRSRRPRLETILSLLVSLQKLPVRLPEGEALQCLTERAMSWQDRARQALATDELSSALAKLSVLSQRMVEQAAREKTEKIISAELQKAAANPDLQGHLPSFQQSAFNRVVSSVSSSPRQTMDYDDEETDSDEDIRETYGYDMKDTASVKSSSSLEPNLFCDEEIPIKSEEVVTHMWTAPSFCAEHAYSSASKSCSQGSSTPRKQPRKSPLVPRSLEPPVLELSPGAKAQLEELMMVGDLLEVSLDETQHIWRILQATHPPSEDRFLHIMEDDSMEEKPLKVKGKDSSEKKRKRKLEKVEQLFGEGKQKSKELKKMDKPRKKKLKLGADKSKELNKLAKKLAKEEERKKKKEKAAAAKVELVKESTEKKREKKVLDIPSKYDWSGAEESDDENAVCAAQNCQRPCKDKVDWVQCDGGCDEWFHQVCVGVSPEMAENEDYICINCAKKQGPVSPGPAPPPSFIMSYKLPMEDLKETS
SMILES,IC50 [1],IC50 [2],EC50 [3],IC50 [4]
O=C(O)c1ccnc(-n2nccc2-c2ccccc2)c1,6200 nM,4400 nM,–,–
O=C(O)c1ccnc(-n2nccc2OCc2cccc(F)c2)c1,–,22 nM,12000 nM,430 nM
O=C(O)c1ccnc(-n2nccc2OCc2ccc(C3CC3)cc2)c1,–,8 nM,–,250 nM
CN(C)CCc1cnn(-c2cc(C(=O)O)ccn2)c1OCc1ccc(F)cc1,19 nM,1 nM,4600 nM,3 nM
O=C(O)c1ccnc(-n2nccc2OCc2ccccc2)c1,5 nM,1 to 24 nM,7000 nM,550 nM
Cc1cnn(-c2cc(C(=O)O)ccn2)c1OCc1ccc(F)cc1,2900 nM,54 nM,–,77 nM
COc1cc(-c2ccnn2-c2cc(C(=O)O)ccn2)ccc1C,1800 nM,540 nM,–,–
O=C(O)c1ccnc(-n2nccc2OCc2ccc(F)cc2)c1,24 nM,4 nM,840 nM,38 nM
Cc1ccc(-c2ccnn2-c2cc(C(=O)O)ccn2)cc1O,1100 nM,76 nM,–,–
O=C(O)c1ccnc(-n2nccc2-c2ccc(O)cc2)c1,450 nM,320 nM,–,–
O=C(O)c1ccnc(-n2nccc2-c2ccc(F)c(F)c2)c1,560 nM,370 nM,–,–
O=C(O)c1ccnc(-n2nccc2OCc2ccc(Cl)cc2)c1,54 nM,4 nM,420 nM,14 nM
O=C(O)c1ccnc(-n2nccc2OCc2ccc(Br)cc2)c1,–,2 nM,860 nM,6 nM
N#Cc1ccc(COc2ccnn2-c2cc(C(=O)O)ccn2)cc1,14 nM,0.6 nM,940 nM,4 nM
CC(Oc1ccnn1-c1cc(C(=O)O)ccn1)c1ccc(F)cc1 (stereo unspecified),310 nM,41 nM,–,180 nM
O=C(O)c1ccnc(-n2nccc2OCc2ccccc2F)c1,–,42 nM,–,270 nM
O=C(O)c1ccnc(-n2nccc2-c2cccc(F)c2)c1,660 nM,500 nM,–,–

SMILES,IC50 [1],IC50 [2],EC50 [3],IC50 [4]
O=C(O)c1ccnc(-n2nccc2OCc2ccc(Cl)cc2OCC2CC2)c1,280 nM,6 nM,–,75 nM
O=C(O)c1ccnc(-n2nccc2OCc2ccc(Cl)cc2OCc2ccccc2)c1,74 nM,4 nM,800 nM,32 nM
CCc1ccc(COc2ccnn2-c2cc(C(=O)O)ccn2)cc1,3600 nM,3 nM,1300 nM,44 nM
Cc1ccc(-c2ccnn2-c2cc(C(=O)O)ccn2)cc1,1100 nM,200 nM,–,–
COc1ccc(COc2ccnn2-c2cc(C(=O)O)ccn2)cc1,68 nM,4 nM,–,1700 nM
CCOc1cc(Cl)ccc1COc1ccnn1-c1cc(C(=O)O)ccn1,78 nM,4 nM,1000 nM,19 nM
COc1cc(-c2ccnn2-c2cc(C(=O)O)ccn2)ccc1Cl,2900 nM,230 nM,–,–
O=C(O)c1ccnc(-n2nccc2-c2ccc(F)cc2)c1,490 nM,240 nM,–,–
COc1cc(Cl)ccc1COc1ccnn1-c1cc(C(=O)O)ccn1,38 nM,1 nM,110 nM,12 nM
O=C(O)c1ccnc(-n2nccc2-c2cccc(O)c2)c1,410 nM,120 nM,–,–
O=C(O)c1ccnc(-n2nccc2-c2ccc(F)cc2F)c1,380 nM,170 nM,–,–
O=C(O)c1ccnc(-n2ncc(CCO)c2OCc2ccc(F)cc2)c1,> 2000 nM,68 nM,–,80 nM
CCc1cnn(-c2cc(C(=O)O)ccn2)c1OCc1ccc(F)cc1,260 nM,24 nM,–,29 nM
Cc1ccc(COc2ccnn2-c2cc(C(=O)O)ccn2)cc1,1100 nM,4 nM,990 nM,32 nM
O=C(O)c1ccnc(-n2nccc2OCc2ccc(Cl)cc2F)c1,–,4 nM,1300 nM,18 nM
CS(=O)(=O)c1ccc(-c2ccnn2-c2cc(C(=O)O)ccn2)cc1,2700 nM,350 nM,–,–
O=C(O)c1ccnc(-n2nccc2OCc2ccc(C(F)(F)F)cc2)c1,–,–,–,240 nM
